Results taken from the NIST ThermoML archive (doi:10.1021/je8001255).

Assay: an = ratio of the nth substance listed, in mol/kg
Conditions: 100 kPa, Liquid; for electrical conductivity: Alternating current cell with electrodes

O=S(=O)([O-])[O-].[Co+2] [cobalt(II) sulfate] + O
Conditions	electrical conductivity, 278.15 K [S/m]	electrical conductivity, 283.15 K [S/m]	electrical conductivity, 288.15 K [S/m]	electrical conductivity, 293.15 K [S/m]	electrical conductivity, 298.15 K [S/m]	electrical conductivity, 303.15 K [S/m]	electrical conductivity, 308.15 K [S/m]	mass density, 298.15 K [kg/m3]
a1 = 0.00551	0.0574	0.066	0.0749	0.084	0.0933	0.103	0.112	997.94
a1 = 0.02535	0.2	0.229	0.26	0.291	0.322	0.354	0.385	1001.16
a1 = 0.05135	0.338	0.388	0.439	0.491	0.544	0.597	0.649	1005.36
a1 = 0.1014	0.58	0.665	0.752	0.841	0.93	1.02	1.11	1013.44
a1 = 0.2522	1.19	1.36	1.54	1.72	1.9	2.09	2.27	1038.18
a1 = 0.4949	1.97	2.25	2.55	2.86	3.16	3.47	3.78	1079.59
a1 = 0.7706	2.63	3.03	3.43	3.85	4.27	4.7	5.12	1129.58
a1 = 0.9827	2.99	3.44	3.91	4.39	4.89	5.39	5.89	1170.36
a1 = 1.151	3.17	3.66	4.17	4.7	5.23	5.78	6.33	1204.34
a1 = 1.257	3.23	3.73	4.26	4.81	5.37	5.94	6.52	1227.86
a1 = 1.519	3.19	3.71	4.26	4.84	5.43	6.04	6.66	1286.2
a1 = 1.719	3.03	3.59	4.17	4.76	5.37	6	6.65	1331.86

O=S(=O)([O-])[O-].[Cu+2] [copper sulfate] + O
Conditions	electrical conductivity, 278.15 K [S/m]	electrical conductivity, 283.15 K [S/m]	electrical conductivity, 288.15 K [S/m]	electrical conductivity, 293.15 K [S/m]	electrical conductivity, 298.15 K [S/m]	electrical conductivity, 303.15 K [S/m]	electrical conductivity, 308.15 K [S/m]	mass density, 298.15 K [kg/m3]
a1 = 0.00666	0.0666	0.0763	0.0863	0.0965	0.107	0.117	0.128	998.16
a1 = 0.02534	0.196	0.224	0.253	0.282	0.311	0.34	0.369	1001.26
a1 = 0.04942	0.319	0.365	0.412	0.459	0.506	0.553	0.598	1005.23
a1 = 0.09691	0.543	0.621	0.7	0.78	0.86	0.938	1.01	1013.09
a1 = 0.2535	1.17	1.34	1.51	1.68	1.85	2.02	2.19	1039.39
a1 = 0.3778	1.61	1.84	2.07	2.31	2.54	2.78	3	1060.88
a1 = 0.4881	1.95	2.23	2.52	2.81	3.1	3.39	3.68	1080.51
a1 = 0.6806	2.49	2.85	3.23	3.6	3.99	4.37	4.74	1115.98
a1 = 0.7935	2.75	3.15	3.57	4	4.43	4.87	5.29	1137.68
a1 = 0.9197	3	3.45	3.92	4.4	4.88	5.37	5.85	1162.72
a1 = 1.037	3.22	3.7	4.21	4.73	5.25	5.79	6.32	1186.79
a1 = 1.138	3.34	3.85	4.39	4.94	5.51	6.08	6.66	1208.14
a1 = 1.198	3.4	3.93	4.48	5.06	5.64	6.24	6.83	1220.58
